Converted amounts (≈) assume the structure as drawn. Where two headings read alike, the source gives them in different places.
Experiments:
[1] = Human pharmacokinetic study (oral, intravenous, intranasal cross-over); conditions: after 1 mg clonazepam
Experimental: The human pharmacokinetics, safety, and tolerability of the benzodiazepines compositions of the present invention formulated for intranasal delivery for therapeutic applications are evaluated using standard clinical procedures. Benzodiazepine compositions formulated for intranasal delivery are provided, for example, for application by the participants to intranasal mucosa.
A primary objective of initial studies in humans is to determine and compare pharmacokinetic profiles of three dosage forms of a benzodiazepine: oral, i.v., and intranasal, following single administration. An example of such a study in humans is a cross-over study performed in 12 healthy male volunteers. Plasma and urine level of clonazepam and 7-amino-clonazepam are determined, for example, using HPLC and UV detection. […] Further the initial studies in humans are used to determine local tolerability of intranasal formulation using questionnaire and the Visual Analog Scale (VAS). VAS is a validated instrument that has been used in numerous studies to quantify subjective […]. In addition, cognitive, sleepiness and mood effects are evaluated using questionnaires and scales (see, e.g., Example 10 below). Further, attention and vigilance may be evaluated using, for example, LEEDS Psychomotor Multiple Choice Reaction Time (MCRT) testing.
A human pharmacokinetic study was carried out as described in Example 8.
15 young, healthy male volunteers received a single dose of 1 mg clonazepam by oral, intravenous and intranasal routes in a three-period cross-over design.

[2] = Drug recovery, degradation and binding to nasal sheep mucosa; assay type: in vitro ADME; conditions: sheep nasal mucosa (excised tissue) in buffer, 37° C., read-out: % recovery in the presence of nasal sheep mucosa
Experimental: (i) Drug recovery, degradation and binding to nasal sheep mucosa: The effect of drug recovery, degradation and binding to sheep nasal mucosa was determined. Briefly, a known surface area (approx. 1 cm^2) of sheep nasal mucosa was added into a glass vial containing a known concentration (10 μg/mL) of each drug prepared in the receiver fluid (10% ethanol in pH 6 buffer). The content of the vial was allowed to equilibrate at 37° C. over a period of 48 h. At 24 h intervals, a sample was removed and assayed via HPLC. The percentage of drug recovered was calculated using Equation 4: % drug recovered=(drug concentration at t=Y/drug concentration at t=Z)×100 (Equation 4)
where, Y=specific time point at 37° C. (in the presence of nasal sheep mucosa); and Z=specific time point at 37° C. (in the absence of nasal sheep mucosa).
In addition to the stability against heat degradation, the effect of drug binding or degradation in the presence of nasal sheep mucosa was also determined (Table 6).

[3] = in vivo; cited from earlier work
[4] = Solubility of benzodiazepines in DEGEE (Transcutol) at 25° C. and −16° C.; conditions: organic solvent or mixture, thermodynamic from solid
Experimental: The solubilities of several other benzodiazepines were measured in DEGEE (diethylene glycol monoethyl ether, transcutol) by the techniques of Example 1. Initially, 10 mg of the drug was loaded in the glass vial and 130-μL of DEGEE was added, and the samples were sonicated for 10 minutes. […] Samples were stored at −16° C. and 25° C. overnight, and centrifuged (5000 rpm, 2 minutes, −10° C. and 23° C. for the −16° C. and 25° C. samples, respectively). […] Clonazepam was measured by UV at 350 nm; all others at 300 nm.

[5] = Saturated solubility in receiver fluid systems (HPLC); conditions: 37 °C, thermodynamic from solid
Experimental: Following the stability studies, a suitable receiver fluid was developed in order to ensure that sink conditions for tested drug were such that the drug release was limited by the solubility of the drug in the receiver fluid. […] Briefly, drug was saturated into different receiver fluid systems by adding excess drug and allowed to stir with a magnetic flea over a period of 2 h at 37° C. Each saturated solution was then filtered using a 0.2 μm syringe filter and the resultant solution was assayed via HPLC.
Calibration curves for clonazepam were constructed between 0.2 to 10 μg/mL with appropriate replicates to ensure repeatability and linearity.
Standards were prepared in receiver fluid (10% ethanol in buffer 6). […] The filtration at room temperature was performed as quickly as possible to minimize any drug precipitation as the temperature dropped from 37° C. during filtration.

[6] = Spray pattern of solvent matrices (plume area, spray angle, Dmax/Dmin); assay type: physicochemical; conditions: 100 μL from Pfeiffer unit-dose device, paper 3 cm above nozzle, 20-25° C.
Experimental: (§1) Fourteen representative solvent matrices used for clonazepam formulations were tested for spray pattern and compared with water. The solvent mixtures were made up, spiked with minute amounts of Coomassie Brilliant Blue Dye and 100 μL were subsequently filled into Pfeiffer unit-dose devices (Pfeiffer of America, Princeton, N.J.). To measure the spray pattern, the devices were actuated below a sheet of paper that was located 3 cm above the spray nozzle. All measurements were made at ambient room temperature (20-25° C.). The smallest (Dmin) and the largest (Dmax) diameter of the blue pattern formed on the sheet of paper were measured and the results used to calculate the Dmax/Dmin ratio, the area of the pattern and the average spray angle. The plume area at 3 cm was calculated using the equation for the area of an ellipse using the half of the two diameters as the ellipse radii. Viscosity of all formulations was measured using Brookfield DV-I viscometer (Brookfield Engineering Laboratories, Inc., Middleboro, Mass.).

[7] = Viscosity of solvent matrices (Brookfield DV-I viscometer); assay type: physicochemical; conditions: solvent matrix without drug
Experimental: as §1

[8] = Effect of temperature on viscosity (Gilmont falling ball viscometer); assay type: physicochemical
Experimental: As weather may dictate substantially different conditions of use, the effect of temperature on viscosity was determined. A Gilmont falling ball viscometer was filled with diethylene glycol monoethyl ether and calibrated for several hours at each temperature. At −17° C., 8° C., 23° C. and 40° C. the measured viscosity was 6.6 cP, 5.4 cP, 3.8 cP and 3.1 cP, respectively.

Nc1ccc2c(c1)C(c1ccccc1Cl)=NCC(=O)N2 [7-Amino-clonazepam]
mean AUCt of metabolite ([1]; intranasal): 16.9 ng·h/mL | mean Cmax of metabolite ([1]; intranasal): 1.17 ng/mL | mean AUCt of metabolite ([1]; intravenous): approximately 30 ng·h/mL | mean Cmax of metabolite ([1]; intravenous): approximately 2 ng/mL | mean AUCt of metabolite ([1]; oral): approximately 30 ng·h/mL | mean Cmax of metabolite ([1]; oral): approximately 2 ng/mL

CN1C(=O)CN=C(c2ccccc2)c2cc(Cl)ccc21 [Diazepam]
recovery at 24 h, 10 μg/mL ([2]; buffer pH 5 (10% ethanol)): 97.6% | recovery at 48 h, 10 μg/mL ([2]; buffer pH 5 (10% ethanol)): 95.6% | recovery at 24 h, 10 μg/mL ([2]; buffer pH 6 (10% ethanol)): 98% | recovery at 48 h, 10 μg/mL ([2]; buffer pH 6 (10% ethanol)): 125% | recovery at 24 h, 10 μg/mL ([2]; buffer pH 7 (10% ethanol)): 97.6% | recovery at 48 h, 10 μg/mL ([2]; buffer pH 7 (10% ethanol)): 94.7% | roughly equal dose (potency equivalence) [3]: ~5.0 mg

O=C1Nc2ccc(Cl)cc2C(c2ccccc2Cl)=NC1O (stereo not shown) [Lorazepam]
recovery at 24 h, 10 μg/mL ([2]; buffer pH 5 (10% ethanol)): 96.9% | recovery at 48 h, 10 μg/mL ([2]; buffer pH 5 (10% ethanol)): 94.9% | recovery at 24 h, 10 μg/mL ([2]; buffer pH 6 (10% ethanol)): 96.8% | recovery at 48 h, 10 μg/mL ([2]; buffer pH 6 (10% ethanol)): 97% | recovery at 24 h, 10 μg/mL ([2]; buffer pH 7 (10% ethanol)): 96.2% | recovery at 48 h, 10 μg/mL ([2]; buffer pH 7 (10% ethanol)): 91.7% | solubility ([4]; 25 °C): > 110000 µg/mL | solubility ([4]; -16 °C): > 130000 µg/mL | solubility at 2 h ([5]; pH 6, aqueous buffer, buffer pH 6, 37° C.): 78.5 µg/mL (≈ 244 µM) | solubility at 2 h ([5]; pH 6, aqueous with cosolvent or surfactant or cyclodextrin, 20% ethanol in buffer pH6, 37° C.): 309 µg/mL (≈ 962 µM) | solubility at 2 h ([5]; pH 6, aqueous with cosolvent or surfactant or cyclodextrin, receiver solution, 10% ethanol in buffer pH 6, 37° C.): 126 µg/mL (≈ 392 µM) | half-life [3]: 8 to 24 h | roughly equal dose (potency equivalence) [3]: ~1.0 mg

O [Water]
Ratio Dmax/Dmin [6]: 1.10 | Spray angle ([6]; average angle calculated from diameters): 73.1 ° | Plume area at 3 cm ([6]; ellipse area from Dmax and Dmin): 15.52 cm^2 | Avg. viscosity [7]: 1.0 cP

CCOCCOCCO [diethylene glycol monoethyl ether]
viscosity ([8]; 8° C.): 5.4 cP | viscosity ([8]; 23° C.): 3.8 cP | viscosity ([8]; 40° C.): 3.1 cP | viscosity ([8]; −17° C.): 6.6 cP

Source: patent publication US8609651B2, “Pharmaceutical compositions of benzodiazepines and method of use thereof” (Jazz Pharmaceuticals, Inc., priority 2006, dated 2013)
